pKi: −log10 of the molar value.
Assays:
[1] = molecular target: T1, human native ganglion-type nicotinic receptors (likely α3β4) (Homo sapiens, UniProt P30926+P32297); test: [3H]epibatidine binding, SH-SY5Y membranes; details: read-out: Human ganglionic (SH-SY5Y), Ki
T1 construct: human native ganglion-type nicotinic receptors (likely α3β4); endogenous in cells; host or cells: SH-SY5Y

CD-1 mice = test: Formalin test; format: in vivo, mouse
Method: One of the most clinically predictive screening models of acute pain is the formalin test in mice (LeBars et al., 2001). In this paradigm, originally described by Dubuisson and Dennis (1977), a diluted solution of formalin is injected into the plantar surface of a subject's (rat or mouse) rear paw and nociceptive behavior is measured; for instance, licking and biting of the injected paw. Two phases of the response are observed. First an early phase, starting immediately after injection and lasting 5-10 minutes, followed by a late phase that can last from 15-60 minutes after injection. Nociceptive response is attributed to direct chemical stimulation in the early phase and inflammation/persistent pain in the later phase (Dubuisson and Dennis, 1977). The response in the late phase also depends on changes in processing of information in the spinal cord due to the afferent barrage during the early phase (Coderre et al., 1990). An advantage of the test is that two different types of stimuli are employed in the same assay to study the possibility of varying analgesic effects of a drug in the two phases of the test (Tjølsen and Hole, 1997).
Subjects (adult male CD-1 mice (Charles River, Raleigh, N.C.) weighing approximately 20-25 grams) were removed from their home cage and weighed, then placed in a clear Plexiglas™ observation box for an acclimation period of 20-30 minutes. Mice were then removed from the observation chambers and (2S,3R)—N-2-((3-pyridinyl)methyl)-1-azabicyclo[2.2.2]oct-3-yl)-3,5-difluorobenzamide (as the hydrochloride salt in 0.9% saline) (1, 3 or 10 mg/kg s.c. (calculated with respect to the free base)), morphine (5 mg/kg; s.c.) or 0.9% saline vehicle was administered subcutaneously in a volume of 1 mL/kg. Mice were then returned to the chamber for the predetermined pretreatment time of 30 minutes for (2S,3R)—N-2-((3-pyridinyl)methyl)-1-azabicyclo[2.2.2]oct-3-yl)-3,5-difluorobenzamide and morphine.
After the test compound pretreatment time, the animals were injected with formalin solution (2.5% derived as a 1:4 dilution of 10% phosphate buffered formalin solution (Sigma):distilled water). The subject's assigned paw was gasped gently and formalin solution was injected into the paw intra-dermally in the middle on the dorsal side. Once injected, the subject was immediately returned to its observation chamber and a timer was started to mark the beginning of Phase I. Each subject was videotaped for the entire 40-minute session. […] The time spent licking during that 1 min interval was recorded, and the presence or absence of paw favoring was noted.
For data analyses, phase I of the test was defined as 0 to 5 minutes after formalin injection, and phase II was defined as 20 to 40 minutes after formalin injection. The time spent licking during the 1 minute intervals during those time frames was recorded and graphed as mean±S.E.M. For comparisons across treatment groups, 1-way analyses of variance (ANOVAs) were performed for each phase of the session with treatment as the […] variable. Post-hoc analyses were performed when appropriate to determine specific group differences.

[2] = Aqueous solubility of salts (salt screen); format: physicochemical; details: free base form

T1 sequence (P32297 32-505): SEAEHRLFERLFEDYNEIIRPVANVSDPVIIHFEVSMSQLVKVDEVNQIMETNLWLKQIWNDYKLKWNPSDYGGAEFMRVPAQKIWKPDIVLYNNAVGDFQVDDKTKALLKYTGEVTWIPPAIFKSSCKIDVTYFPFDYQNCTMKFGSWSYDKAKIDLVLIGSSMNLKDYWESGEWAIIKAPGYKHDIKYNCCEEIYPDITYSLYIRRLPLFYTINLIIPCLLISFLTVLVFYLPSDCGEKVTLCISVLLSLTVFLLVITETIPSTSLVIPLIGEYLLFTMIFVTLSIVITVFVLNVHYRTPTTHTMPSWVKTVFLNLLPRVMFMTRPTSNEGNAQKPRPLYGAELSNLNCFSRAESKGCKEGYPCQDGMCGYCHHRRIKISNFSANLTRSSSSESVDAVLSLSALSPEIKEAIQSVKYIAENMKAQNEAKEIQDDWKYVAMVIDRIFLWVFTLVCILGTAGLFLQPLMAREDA
T1 sequence (P30926 22-498): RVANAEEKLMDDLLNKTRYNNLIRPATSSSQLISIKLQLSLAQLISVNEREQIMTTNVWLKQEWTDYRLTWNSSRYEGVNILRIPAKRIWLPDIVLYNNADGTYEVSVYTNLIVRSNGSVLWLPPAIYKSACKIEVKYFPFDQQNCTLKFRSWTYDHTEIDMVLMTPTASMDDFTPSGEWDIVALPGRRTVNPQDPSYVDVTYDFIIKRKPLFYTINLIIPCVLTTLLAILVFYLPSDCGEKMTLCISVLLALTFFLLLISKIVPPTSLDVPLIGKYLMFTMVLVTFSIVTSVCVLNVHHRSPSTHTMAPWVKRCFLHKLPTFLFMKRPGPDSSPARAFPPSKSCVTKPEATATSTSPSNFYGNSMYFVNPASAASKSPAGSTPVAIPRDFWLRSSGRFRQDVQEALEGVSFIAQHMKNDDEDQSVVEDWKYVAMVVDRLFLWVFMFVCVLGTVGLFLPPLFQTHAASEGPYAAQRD

Structure (SMILES): O=C(N[C@@H]1C2CCN(CC2)[C@H]1Cc1cccnc1)c1cc(F)cc(F)c1 [Compound A]
- pKi [1]: 4.32
- reduction of time spent licking the paw, phase II (CD-1 mice; 10 mg/kg s.c., 20 to 40 minutes after formalin, P<0.05): significant in reducing the time spent licking the paw
- reduction of time spent licking, phase I (CD-1 mice; 1, 3 or 10 mg/kg s.c., hydrochloride salt, 0 to 5 minutes after formalin): no statistically significant dose
- reduction of time spent licking the affected paw, phase I or phase II (CD-1 mice; subsequent analysis of the videotapes, scored across the entire time period): failed to achieve statistical significance
- water solubility [2]: limited water solubility

Reference: patent US20110312961A1, “2,5-Disubstituted Morpholine Orexin REceptor Antagonists” (priority 2008, published 2011)
